From article PMC11024854 (Theranostics, 2024)
pKd: −log10 of the molar value.

How the values were obtained:
HSP90α (HSP90AA1) = molecular target: T1, HSP90α (HSP90AA1) (Homo sapiens, UniProt P07900); test: SPR (Biacore […], immobilized HSP90AA1); also C-terminal HSP90α:PPID AlphaLISA inhibition at […]; format: binding
T1 construct: recombinant human HSP90AA1 protein

HSP90α = molecular target: T2, HSP90α (Homo sapiens, UniProt P07900); test: competitive binding assay against FITC-labeled geldanamycin ([…] compound)
T2 construct: gene HSP90AA1; purified recombinant HSP90α (N-terminal domain assay kit)

| SMILES | pKd (HSP90α (HSP90AA1)) | competitive binding assay against FITC-labeled geldanamycin (1000 nM compound) (HSP90α) |
| --- | --- | --- |
| COc1c(C(=O)Nc2ccc3c(C)nn(CCC4CCN(C)CC4)c3c2)ccc2c1C=CC(C)(C)O2 [HVH-2930] | 4.01 |  |
| CC(C)c1cc(C(=O)N2Cc3ccc(CN4CCN(C)CC4)cc3C2)c(O)cc1O [onalespib] |  | unlike the N-terminal HSP90 inhibitors, neither HVH-2930 nor novobiocin exhibited any binding activity to the N-terminal region of HSP90α |
